Test systems include CAKI-1 renal; HCC-2998 colon; HOP-18 NSCLC; KM20L2 colon; LXFL 529 NSCLC; DMS 273 small cell lung; SK-MEL-2 melanoma; SR leukemia; MDA-MB-231 breast; NCI/ADR-RES ovarian; PC-3 prostate; T-47D breast.
What all share (test): DTP human tumour cell line panel, 48 h

Molecules are shown by their SMILES. Where “and” joins values, the source holds several entries; their conditions need not be identical. Equal values may be shown once.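 Cultured in 96-well plates, cells were exposed to test compound for 48 hours across five concentrations. Here, GI50 denotes the concentration required for 50% inhibition of growth. TGI: concentration producing complete growth inhibition.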

One may read the TGI as the concentration at which net growth stops. The low end stands for more potent growth arrest, the high end for less potent growth arrest. Usually GI50 stands for the concentration at which growth is held to half of that of the control.

Regarding `O=C(Nc1ccc(Cl)cc1Cl)C1C(=O)C(=O)N(c2ccc(Cl)cc2Cl)C1=O` (stereo not drawn), the TGI in the assay with CAKI-1 renal, with HCC-2998 colon, with HOP-18 NSCLC, in the assay with KM20L2 colon and in the assay on LXFL 529 NSCLC was above 100 µM throughout.

On to `Cc1cccc(C)c1CO`, for which the TGI in the assay with CAKI-1 renal, in the assay on DMS 273 small cell lung, in the assay on HCC-2998 colon, with KM20L2 colon, with LXFL 529 NSCLC and with SK-MEL-2 melanoma was above 100 µM each time. Further, the TGI with SR leukemia is above 100 µM.

On to `COc1ccc(C(=O)C(C(=O)CC(=O)Nc2cccc(C(F)(F)F)c2)c2ccc(OC)cc2)cc1` (stereo not drawn), for which the TGI in the assay on CAKI-1 renal, in the assay with DMS 273 small cell lung, in the assay with HCC-2998 colon, in the assay with KM20L2 colon, in the assay on LXFL 529 NSCLC and with SK-MEL-2 melanoma was above 100 µM throughout. In addition, in the assay on SR leukemia, the total growth inhibition concentration (TGI) is above 100 µM.

As to `C[C@]12CC[C@H](OC3OC(CO)C(O)C(O)C3O)C[C@H]1CC[C@@H]1[C@@H]2CC[C@]2(C)[C@@H](C3=CCOC3=O)CC[C@]12O` (stereo partly drawn), the TGI in the assay with DMS 273 small cell lung was 25.1 µM; in the assay with HCC-2998 colon, 50 µM and > 100 µM; in the assay on KM20L2 colon, 50 µM; with MDA-MB-231 breast it was above 100 µM; in the assay on NCI/ADR-RES ovarian, 50 µM and > 100 µM; in the assay with PC-3 prostate it was above 100 µM. Moreover, the concentration for total growth inhibition (TGI) in the assay with SK-MEL-2 melanoma was 50 µM and > 100 µM; in the assay with SR leukemia it was above 100 µM; with T-47D breast it was above 100 µM. Besides, the GI50 with HCC-2998 colon is above 100 µM; in the assay with NCI/ADR-RES ovarian, above 100 µM; with SK-MEL-2 melanoma, above 100 µM; in the assay with T-47D breast, 4.89 µM.

Regarding `Cn1nc(-c2ccccc2)c(C(=O)/C=C/c2ccc(Cl)cc2)c(N2CCCCC2)c1=O`, the concentration for total growth inhibition (TGI) came to 3.94 µM in the assay with CAKI-1 renal; 6.75 µM in the assay with DMS 273 small cell lung; 4.94 µM in the assay on HOP-18 NSCLC; 6.46 µM in the assay on KM20L2 colon; 3.33 µM in the assay with LXFL 529 NSCLC.

Regarding `COC(=O)C1=C(O)c2cc(-c3ccccc3)c(-c3ccccc3)c(C#N)c2NC(=O)C1`, the TGI in the assay with CAKI-1 renal is 85.8 µM; in the assay with DMS 273 small cell lung, above 100 µM; in the assay with HCC-2998 colon, above 100 µM; in the assay on KM20L2 colon it was above 100 µM; in the assay on LXFL 529 NSCLC, above 100 µM; in the assay with SK-MEL-2 melanoma, above 100 µM. Also, the TGI with SR leukemia was above 100 µM.

With `O=C(c1ccccc1)c1c(-c2ccccc2)sc2nc3ccccc3nc12`, the TGI in the assay on CAKI-1 renal, with DMS 273 small cell lung, in the assay with HCC-2998 colon, in the assay on KM20L2 colon and in the assay with SK-MEL-2 melanoma was above 100 µM in each case.

`NC(=O)CCC(Nc1c2ccccc2nc2ccccc12)C(=O)O` (stereo not drawn): the TGI in the assay with CAKI-1 renal, in the assay with DMS 273 small cell lung, in the assay on HCC-2998 colon, in the assay with KM20L2 colon, in the assay with LXFL 529 NSCLC and in the assay on SK-MEL-2 melanoma was above 100 µM each time. The compound also showed a TGI in the assay on SR leukemia above 100 µM.

In the case of `O=C(O)Cc1cc(=O)[nH]c2c1/C(=N/O)CCC2`, the concentration for total growth inhibition (TGI) in the assay on HCC-2998 colon, in the assay with HOP-18 NSCLC, in the assay with LXFL 529 NSCLC, in the assay with SK-MEL-2 melanoma and in the assay with SR leukemia was above 100 µM in each case.

Take `O=C(CCc1nnc2s/c(=C\c3ccc(Cl)c(Cl)c3)c(=O)n12)Nc1ccc(Cl)c(Cl)c1`: the TGI with CAKI-1 renal is above 100 µM; in the assay on HCC-2998 colon it was above 100 µM; with HOP-18 NSCLC it was above 100 µM; with KM20L2 colon, above 100 µM; in the assay on LXFL 529 NSCLC, above 100 µM; in the assay on SR leukemia, 74 µM.

Take `CC1=C(C(=O)Nc2cc(=O)n(C)c(=O)n2C)C(c2cccc([N+](=O)[O-])c2)C(C(=O)Nc2cc(=O)n(C)c(=O)n2C)=C(C)N1`: the total growth inhibition concentration (TGI) with CAKI-1 renal, in the assay on HCC-2998 colon, with KM20L2 colon, with LXFL 529 NSCLC and in the assay with SK-MEL-2 melanoma was above 100 µM in each case.

As for `O=C1O/C(=C\c2ccccc2)N(c2ccccc2)C1=O`, the TGI in the assay on CAKI-1 renal, in the assay on HCC-2998 colon, with MDA-MB-231 breast, in the assay on NCI/ADR-RES ovarian, in the assay on PC-3 prostate and with SK-MEL-2 melanoma was above 100 µM in each case. Also, the TGI with SR leukemia and in the assay on T-47D breast was above 100 µM throughout.

For `CS(=O)(=O)CCNCc1ccc(-c2ccc3ncnc(Nc4ccc(OCc5ccccc5)c(Br)c4)c3c2)o1`, the GI50 in the assay with CAKI-1 renal is 2.43 µM; in the assay on HCC-2998 colon, 4.56 µM; with MDA-MB-231 breast, 4.85 µM; in the assay with NCI/ADR-RES ovarian it was 6.87 µM; in the assay with PC-3 prostate, 9.28 µM; in the assay with SK-MEL-2 melanoma, 6.5 µM. Also, the GI50 is 8.49 µM in the assay with SR leukemia and 0.821 µM in the assay with T-47D breast. For the same compound, the concentration for total growth inhibition (TGI) with CAKI-1 renal was above 25 µM; in the assay on HCC-2998 colon, 9.11 µM; in the assay on MDA-MB-231 breast, 9.87 µM; with NCI/ADR-RES ovarian it was above 25 µM; with PC-3 prostate it was above 25 µM; in the assay on SK-MEL-2 melanoma, 13.1 µM. For the same compound, the TGI in the assay with SR leukemia is above 23.3 µM; in the assay with T-47D breast, 17.4 µM.

For `C=C(C#N)C1OCC2OC(C)(C)OC21` (stereo not drawn), the TGI was determined as 49.1 µM in the assay on CAKI-1 renal; 43.1 µM in the assay on DMS 273 small cell lung; 83.6 µM in the assay on HCC-2998 colon; 81.7 µM in the assay on HOP-18 NSCLC; 77.2 µM in the assay with SK-MEL-2 melanoma.

On to `Cc1ccc2c(-c3ccnc(Nc4ccccc4)n3)c(-c3ccc(F)cc3)nn2n1`, for which the GI50 was 1.41 µM in the assay on CAKI-1 renal; 7.03 µM in the assay on HCC-2998 colon; 8.25 µM in the assay with MDA-MB-231 breast; 6.64 µM in the assay on NCI/ADR-RES ovarian; 9.97 µM with PC-3 prostate; 7.67 µM in the assay with SK-MEL-2 melanoma. In addition, the GI50 in the assay on SR leukemia is 11.7 µM; in the assay on T-47D breast, 7.45 µM. Further, the concentration for total growth inhibition (TGI) in the assay on CAKI-1 renal was above 25 µM; with HCC-2998 colon, 22.6 µM; in the assay with MDA-MB-231 breast, above 25 µM; in the assay on NCI/ADR-RES ovarian it was above 25 µM; in the assay with PC-3 prostate, above 25 µM; in the assay with SK-MEL-2 melanoma, 17.4 µM. Moreover, the TGI with SR leukemia and in the assay on T-47D breast was above 25 µM in each case.

For the compound `O=C1O[C@H](c2ccccc2)[C@@H]2CC3(CCN12)OCCO3`, the TGI with CAKI-1 renal, with DMS 273 small cell lung, with KM20L2 colon, in the assay with LXFL 529 NSCLC, in the assay on SK-MEL-2 melanoma and in the assay with SR leukemia was above 100 µM throughout.

(Values after PubChem BioAssay (NCI).)
